Tested on: 485176-168-R4-J1-PDC spheroids with HUVEC/MSC, viability
Assay: Anticancer human tumor 485176-168-R4-J1-PDC patient-derived pancreatic adenocarcinoma cell line growth inhibition [GQUAD]
Conditions: for IC50: curve of first compound; for viability, T/C: stronger effect = lower value
Method in brief: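 Tumor cells were grown as complex spheroids with HUVEC endothelial cells and mesenchymal stem cells as stroma. G-quadruplex stabilizers were combined with targeted agents over half-log dilutions from near the clinical Cmax, or from 10 microM.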

[1] = second compound 0.0316 µM, first compound 0.0316 µM
[2] = second compound 0.0316 µM, first compound 0.316 µM
[3] = second compound 0.1 µM, first compound 0.0316 µM
[4] = second compound 0.1 µM, first compound 0.316 µM
[5] = second compound 0.316 µM, first compound 0.0316 µM
[6] = second compound 0.316 µM, first compound 0.316 µM
[7] = second compound 1 µM, first compound 0.0316 µM
[8] = second compound 1 µM, first compound 0.316 µM
[9] = second compound 3.16 µM, first compound 0.0316 µM
[10] = second compound 3.16 µM, first compound 0.316 µM
[11] = second compound 10 µM, first compound 0.0316 µM
[12] = second compound 10 µM, first compound 0.316 µM
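Also: spheroids exposed to compounds for seven days before readout.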
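For viability, T/C in this document: percent viability relative to DMSO vehicle control wells as 100%.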

CC[C@@]1(O)C(=O)OCc2c1cc1n(c2=O)Cc2cc3c(CN(C)C)c(O)ccc3nc2-1 + Cc1[nH]c2ccc(F)cc2c1-c1nc2c3cccnc3c3ncccc3c2[nH]1
IC50 (second compound 0.0316 µM): 0.134 µM | IC50 (second compound 0.1 µM): 0.178 µM | IC50 (second compound 0.316 µM): 0.089 µM | IC50 (second compound 1 µM): 0.125 µM | IC50 (second compound 3.16 µM): 0.121 µM | IC50 (second compound 10 µM): 0.148 µM | viability, T/C (second compound 0.0316 µM, first compound 0.000999 µM): 124% | viability, T/C (second compound 0.0316 µM, first compound 0.00316 µM): 107% | viability, T/C (second compound 0.0316 µM, first compound 0.00999 µM): 99.4% | viability, T/C [1]: 70.6% | viability, T/C (second compound 0.0316 µM, first compound 0.0999 µM): 57.5% | viability, T/C [2]: 34.4% | viability, T/C (second compound 0.1 µM, first compound 0.000999 µM): 85.6% | viability, T/C (second compound 0.1 µM, first compound 0.00316 µM): 83.4% | viability, T/C (second compound 0.1 µM, first compound 0.00999 µM): 97.1% | viability, T/C [3]: 89.8% | viability, T/C (second compound 0.1 µM, first compound 0.0999 µM): 59% | viability, T/C [4]: 41.1% | viability, T/C (second compound 0.316 µM, first compound 0.000999 µM): 106% | viability, T/C (second compound 0.316 µM, first compound 0.00316 µM): 94.7% | viability, T/C (second compound 0.316 µM, first compound 0.00999 µM): 108% | viability, T/C [5]: 75.6% | viability, T/C (second compound 0.316 µM, first compound 0.0999 µM): 50.3% | viability, T/C [6]: 38.5% | viability, T/C (second compound 1 µM, first compound 0.000999 µM): 93.3% | viability, T/C (second compound 1 µM, first compound 0.00316 µM): 105% | viability, T/C (second compound 1 µM, first compound 0.00999 µM): 118% | viability, T/C [7]: 82.9% | viability, T/C (second compound 1 µM, first compound 0.0999 µM): 56% | viability, T/C [8]: 36.5% | viability, T/C (second compound 3.16 µM, first compound 0.000999 µM): 88.1% | viability, T/C (second compound 3.16 µM, first compound 0.00316 µM): 99.7% | viability, T/C (second compound 3.16 µM, first compound 0.00999 µM): 79.9% | viability, T/C [9]: 65.3% | viability, T/C (second compound 3.16 µM, first compound 0.0999 µM): 57.2% | viability, T/C [10]: 33.8% | viability, T/C (second compound 10 µM, first compound 0.000999 µM): 81.5% | viability, T/C (second compound 10 µM, first compound 0.00316 µM): 101% | viability, T/C (second compound 10 µM, first compound 0.00999 µM): 68.3% | viability, T/C [11]: 77.2% | viability, T/C (second compound 10 µM, first compound 0.0999 µM): 58.2% | viability, T/C [12]: 34%

COc1ncnc(C2CC2)c1-c1ncc2cnn(Cc3ccc(-c4nc(C(F)(F)F)cn4C(C)C)cc3)c2n1 + Cc1cnc(CNC(=O)c2c(=O)c3ccc(N4CCCN(C)CC4)nc3n3c2sc2ccccc23)cn1
IC50 (second compound 0.0316 µM): > 10 µM | IC50 (second compound 0.1 µM): > 10 µM | IC50 (second compound 0.316 µM): > 10 µM | IC50 (second compound 1 µM): < 0.0316 µM | IC50 (second compound 3.16 µM): < 0.0316 µM | IC50 (second compound 10 µM): < 0.0316 µM | viability, T/C [1]: 102% | viability, T/C (second compound 0.0316 µM, first compound 0.1 µM): 83.6% | viability, T/C [2]: 88.9% | viability, T/C (second compound 0.0316 µM, first compound 1 µM): 89.7% | viability, T/C (second compound 0.0316 µM, first compound 3.16 µM): 107% | viability, T/C (second compound 0.0316 µM, first compound 10 µM): 83.7% | viability, T/C [3]: 77.3% | viability, T/C (second compound 0.1 µM, first compound 0.1 µM): 86.8% | viability, T/C [4]: 76.8% | viability, T/C (second compound 0.1 µM, first compound 1 µM): 66.2% | viability, T/C (second compound 0.1 µM, first compound 3.16 µM): 67% | viability, T/C (second compound 0.1 µM, first compound 10 µM): 81% | viability, T/C [5]: 54.6% | viability, T/C (second compound 0.316 µM, first compound 0.1 µM): 65.4% | viability, T/C [6]: 56.4% | viability, T/C (second compound 0.316 µM, first compound 1 µM): 73.7% | viability, T/C (second compound 0.316 µM, first compound 3.16 µM): 61.6% | viability, T/C (second compound 0.316 µM, first compound 10 µM): 62.9% | viability, T/C [7]: 50.4% | viability, T/C (second compound 1 µM, first compound 0.1 µM): 44.1% | viability, T/C [8]: 57.7% | viability, T/C (second compound 1 µM, first compound 1 µM): 52.5% | viability, T/C (second compound 1 µM, first compound 3.16 µM): 58.3% | viability, T/C (second compound 1 µM, first compound 10 µM): 54.9% | viability, T/C [9]: 45.1% | viability, T/C (second compound 3.16 µM, first compound 0.1 µM): 47.6% | viability, T/C [10]: 47% | viability, T/C (second compound 3.16 µM, first compound 1 µM): 40.4% | viability, T/C (second compound 3.16 µM, first compound 3.16 µM): 43.8% | viability, T/C (second compound 3.16 µM, first compound 10 µM): 47% | viability, T/C [11]: 36.1% | viability, T/C (second compound 10 µM, first compound 0.1 µM): 47.7% | viability, T/C [12]: 40.3% | viability, T/C (second compound 10 µM, first compound 1 µM): 34.4% | viability, T/C (second compound 10 µM, first compound 3.16 µM): 40.5% | viability, T/C (second compound 10 µM, first compound 10 µM): 39.6%

From PubChem BioAssay AID2060509 (Molecular Pharmacology Branch, DTP, NCI, 2025)
